# Assay results reported in the supplement of paper PMC10307832.
# How the values were obtained:
# Assay in all cases: relative viability (nuclei count vs DMSO), 5 days (fraction); higher = more cells survive
# 201T = tested on: 201T
# How it was run: (§1)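 Medians of duplicate plates are given as relative viability. That measure is the nuclei count in treated wells divided by the count in vehicle wells. Counts were taken on 4× images of lung cancer cell lines in 1536-well plates, 5 days after pin-tool dosing the day after seeding with one drug alone or a fixed anchor-drug dose plus five library-drug doses (not always all listed) in √10 steps.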
# COR-L23 = tested on: COR-L23
# How it was run: as §1
# EPLC-272H = tested on: EPLC-272H
# How it was run: as §1
# H3255 = tested on: H3255
# How it was run: as §1
# HCC-15 = tested on: HCC-15
# How it was run: as §1
# LOU-NH91 = tested on: LOU-NH91
# How it was run: as §1
# NCI-H1563 = tested on: NCI-H1563
# How it was run: as §1
# NCI-H1650 = tested on: NCI-H1650
# How it was run: as §1
# NCI-H1734 = tested on: NCI-H1734
# How it was run: as §1
# NCI-H1793 = tested on: NCI-H1793
# How it was run: as §1
# NCI-H2023 = tested on: NCI-H2023
# How it was run: as §1
# NCI-H2170 = tested on: NCI-H2170
# How it was run: as §1
# NCI-H2347 = tested on: NCI-H2347
# How it was run: as §1
# NCI-H2405 = tested on: NCI-H2405
# How it was run: as §1
# NCI-H3122 = tested on: NCI-H3122
# How it was run: as §1
# NCI-H322M = tested on: NCI-H322M
# How it was run: as §1
# NCI-H441 = tested on: NCI-H441
# How it was run: as §1
# NCI-H520 = tested on: NCI-H520
# How it was run: as §1
# NCI-H647 = tested on: NCI-H647
# How it was run: as §1
# PC-14 = tested on: PC-14
# How it was run: as §1
# SW 900 = tested on: SW 900
# How it was run: as §1
# UMC-11 = tested on: UMC-11
# How it was run: as §1
smiles,measurement,setting,value
CC(=O)O[C@@]12CO[C@@H]1C[C@H](O)[C@@]1(C)C(=O)[C@H](O)C3=C(C)[C@@H](OC(=O)[C@H](O)[C@@H](NC(=O)OC(C)(C)C)c4ccccc4)C[C@@](O)([C@@H](OC(=O)c4ccccc4)[C@H]21)C3(C)C [Docetaxel] + N=C(N)NC(=N)NCCc1ccccc1 [Phenformin] (partner 250 µM),relative viability,201T; first compound 0.0002 µM,0.4
same,relative viability,201T; first compound 0.000632 µM,0.366
same,relative viability,201T; first compound 0.002 µM,0.36
same,relative viability,201T; first compound 0.006325 µM,0.342
same,relative viability,201T; first compound 0.02 µM,0.242
same,relative viability,COR-L23; first compound 0.0002 µM,0.399
same,relative viability,COR-L23; first compound 0.000632 µM,0.32
same,relative viability,COR-L23; first compound 0.002 µM,0.167
same,relative viability,COR-L23; first compound 0.006325 µM,0.106
same,relative viability,COR-L23; first compound 0.02 µM,0.098
same,relative viability,EPLC-272H; first compound 0.0002 µM,0.304
same,relative viability,EPLC-272H; first compound 0.000632 µM,0.242
same,relative viability,EPLC-272H; first compound 0.002 µM,0.194
same,relative viability,EPLC-272H; first compound 0.006325 µM,0.0792
same,relative viability,EPLC-272H; first compound 0.02 µM,0.0848
same,relative viability,H3255; first compound 0.0002 µM,0.353
same,relative viability,H3255; first compound 0.000632 µM,0.349
same,relative viability,H3255; first compound 0.002 µM,0.312
same,relative viability,H3255; first compound 0.006325 µM,0.357
same,relative viability,H3255; first compound 0.02 µM,0.259
same,relative viability,HCC-15; first compound 0.0002 µM,0.402
same,relative viability,HCC-15; first compound 0.000632 µM,0.315
same,relative viability,HCC-15; first compound 0.002 µM,0.181
same,relative viability,HCC-15; first compound 0.006325 µM,0.203
same,relative viability,HCC-15; first compound 0.02 µM,0.113
same,relative viability,LOU-NH91; first compound 0.0002 µM,0.661
same,relative viability,LOU-NH91; first compound 0.000632 µM,0.625
same,relative viability,LOU-NH91; first compound 0.002 µM,0.41
same,relative viability,LOU-NH91; first compound 0.006325 µM,0.317
same,relative viability,LOU-NH91; first compound 0.02 µM,0.269
same,relative viability,NCI-H1563; first compound 0.0002 µM,0.619
same,relative viability,NCI-H1563; first compound 0.000632 µM,0.683
same,relative viability,NCI-H1563; first compound 0.002 µM,0.661
same,relative viability,NCI-H1563; first compound 0.006325 µM,0.582
same,relative viability,NCI-H1563; first compound 0.02 µM,0.479
same,relative viability,NCI-H1650; first compound 0.0002 µM,0.349
same,relative viability,NCI-H1650; first compound 0.000632 µM,0.287
same,relative viability,NCI-H1650; first compound 0.006325 µM,0.147
same,relative viability,NCI-H1650; first compound 0.02 µM,0.0956
same,relative viability,NCI-H1734; first compound 0.0002 µM,0.296
same,relative viability,NCI-H1734; first compound 0.000632 µM,0.338
same,relative viability,NCI-H1734; first compound 0.002 µM,0.232
same,relative viability,NCI-H1734; first compound 0.006325 µM,0.221
same,relative viability,NCI-H1734; first compound 0.02 µM,0.168
same,relative viability,NCI-H1793; first compound 0.0002 µM,0.302
same,relative viability,NCI-H1793; first compound 0.000632 µM,0.319
same,relative viability,NCI-H1793; first compound 0.002 µM,0.322
same,relative viability,NCI-H1793; first compound 0.006325 µM,0.245
same,relative viability,NCI-H1793; first compound 0.02 µM,0.173
same,relative viability,NCI-H2023; first compound 0.0002 µM,0.358
same,relative viability,NCI-H2023; first compound 0.000632 µM,0.292
same,relative viability,NCI-H2023; first compound 0.002 µM,0.118
same,relative viability,NCI-H2023; first compound 0.006325 µM,0.0961
same,relative viability,NCI-H2023; first compound 0.02 µM,0.0806
same,relative viability,NCI-H2170; first compound 0.0002 µM,0.405
same,relative viability,NCI-H2170; first compound 0.000632 µM,0.428
same,relative viability,NCI-H2170; first compound 0.002 µM,0.267
same,relative viability,NCI-H2170; first compound 0.006325 µM,0.217
same,relative viability,NCI-H2170; first compound 0.02 µM,0.174
same,relative viability,NCI-H2347; first compound 0.0002 µM,0.496
same,relative viability,NCI-H2347; first compound 0.000632 µM,0.303
same,relative viability,NCI-H2347; first compound 0.002 µM,0.295
same,relative viability,NCI-H2347; first compound 0.006325 µM,0.201
same,relative viability,NCI-H2347; first compound 0.02 µM,0.256
same,relative viability,NCI-H2405; first compound 0.0002 µM,0.393
same,relative viability,NCI-H2405; first compound 0.000632 µM,0.419
same,relative viability,NCI-H2405; first compound 0.002 µM,0.315
same,relative viability,NCI-H2405; first compound 0.006325 µM,0.297
same,relative viability,NCI-H2405; first compound 0.02 µM,0.26
same,relative viability,NCI-H3122; first compound 0.0002 µM,0.368
same,relative viability,NCI-H3122; first compound 0.000632 µM,0.345
same,relative viability,NCI-H3122; first compound 0.002 µM,0.261
same,relative viability,NCI-H3122; first compound 0.006325 µM,0.152
same,relative viability,NCI-H3122; first compound 0.02 µM,0.139
same,relative viability,NCI-H322M; first compound 0.0002 µM,0.807
same,relative viability,NCI-H322M; first compound 0.000632 µM,0.765
same,relative viability,NCI-H322M; first compound 0.002 µM,0.656
same,relative viability,NCI-H322M; first compound 0.006325 µM,0.478
same,relative viability,NCI-H322M; first compound 0.02 µM,0.332
same,relative viability,NCI-H441; first compound 0.0002 µM,0.833
same,relative viability,NCI-H441; first compound 0.000632 µM,0.889
same,relative viability,NCI-H441; first compound 0.002 µM,0.315
same,relative viability,NCI-H441; first compound 0.006325 µM,0.281
same,relative viability,NCI-H441; first compound 0.02 µM,0.197
same,relative viability,NCI-H520; first compound 0.0002 µM,0.585
same,relative viability,NCI-H520; first compound 0.000632 µM,0.604
same,relative viability,NCI-H520; first compound 0.002 µM,0.37
same,relative viability,NCI-H520; first compound 0.006325 µM,0.255
same,relative viability,NCI-H520; first compound 0.02 µM,0.148
same,relative viability,NCI-H647; first compound 0.0002 µM,0.329
same,relative viability,NCI-H647; first compound 0.000632 µM,0.322
same,relative viability,NCI-H647; first compound 0.002 µM,0.133
same,relative viability,NCI-H647; first compound 0.006325 µM,0.106
same,relative viability,NCI-H647; first compound 0.02 µM,0.0836
same,relative viability,PC-14; first compound 0.0002 µM,0.575
same,relative viability,PC-14; first compound 0.000632 µM,0.212
same,relative viability,PC-14; first compound 0.002 µM,0.129
same,relative viability,PC-14; first compound 0.006325 µM,0.0718
same,relative viability,PC-14; first compound 0.02 µM,0.0382
same,relative viability,SW 900; first compound 0.0002 µM,0.389
same,relative viability,SW 900; first compound 0.000632 µM,0.235
same,relative viability,SW 900; first compound 0.002 µM,0.262
same,relative viability,SW 900; first compound 0.006325 µM,0.167
same,relative viability,SW 900; first compound 0.02 µM,0.0976
same,relative viability,UMC-11; first compound 0.0002 µM,0.309
same,relative viability,UMC-11; first compound 0.000632 µM,0.332
same,relative viability,UMC-11; first compound 0.002 µM,0.228
same,relative viability,UMC-11; first compound 0.006325 µM,0.205
same,relative viability,UMC-11; first compound 0.02 µM,0.199
